From US20040138312A1, “Methods for the treatment of neurodegeneration” (priority 2002, published 2004)

How the values were obtained:
Type in all cases: in vivo, C57B1/B6 type mice
MPTP-treated mice [1] = test: Tail Hanging test (forelimb placement) in MPTP-treated mice; details: during the period that the compound is administered; 3 mg/kg/day s.c. mini-pump
Description: Mice are hung by their tails 3 times each, for approximately 10 seconds each time. Each mouse is hung by the base of its tail about 30 cm above the surface of a table until the mouse turns either left or right. A left turn is given a score of 0 and a right turn is given a score of 1.
Forelimb placement is also noted during tail hanging. The placement of the limbs is given a score on a 4 point scale. Extended limbs, or those placed above the head are given a score of 0. Limbs which are clasped or held against the body are given a score of 3. Scores of 1 or 2 are assigned for relative stages between the two extremes. Hindlimb placement is also scored as below.
(§1) Mice that receive systemic injections of the pyridine toxin 1-methyl-4-phenyl-1,2,3,6-tetrahydropyridine (MPTP) selectively lose large numbers of dopaminergic neurons in the substantia nigra (SN) and the ventral tegmental area (VTA). Loss of dopamine cells in the SN mimics the clinical condition seen in Parkinson's disease. Loss of such cells in the VTA may contribute to the cognitive deficits seen in Parkinson's and Alzheimer's disease, due to these neurons' projections into the frontal cortex.
(§2) 50 C57B1/B6 type mice (8-12 weeks old) are allowed to acclimate for 12-14 days before experimental use. The mice are then randomly assigned to the following groups: MPTP plus DMSO vehicle; vehicle alone, MPTP plus brimonidine (3 mg/kg/day), MPTP plus AGN 197075 (3 mg/kg/day), and MPTP plus AGN 196923 (3 mg/kg/day)).
In the presently described assays, each mouse is then given an initial Open-Field test and a Tail Hanging test. The Open Field test is the most frequently used behavioral assay of MPTP-treated mice, and appears to be sensitive to loss of dopaminergic input from the substantia nigra. The Tail-Hanging test is sensitive to direct striatal damage; the Nest Building test is sensitive to loss of striatal input from the frontal cortex. […]
(§3) For all behavioral tests, the results are first analyzed using a repeated measures ANOVA, following by tests of the between groups effect using Fisher's HSD method.

MPTP-treated mice [2] = test: Open-Field test in MPTP-treated mice; details: for Open field activity compared with the vehicle group: 3 mg/kg/day s.c. osmotic mini-pump 14 days
Description: Each animal is placed in a clear plastic open field box with two rows of photo-beams mounted on the sides to distinguish be5tween horizontal (i.e. distance traveled) and vertical (i.e. “rears”) movements. Ambient conditions are low noise and dim lighting. The animal's movements within the box are measured for 5 minutes, and calculated from records of the number and type of “beam-breaks” or photo-beam crossings. On the last Open Field test, only rears are counted, and classified as either “supported” or “unsupported”. Supported rears are when an animal places at least one forelimb on the side wall of the box when a rear is recorded. In an unsupported rear the mouse is supported solely by hindlimbs. These rears are distinguished by videorecording. The number of unsupported rears is the most reliable measure of dopamine neuron loss in this test.
as §1, §2
In the presently described assays, each mouse is then given an initial Open-Field test and a Tail Hanging test. […]
as §3

[3] = test system: dopaminergic neurons in the ventral tegmental area (VTA); test: Neuron counting (tyrosine hydroxylase-labeled cells) in ventral tegmental area of MPTP-treated mice; details: 3 mg/kg/day s.c. mini-pump 14 days; MPTP alone 28% fewer neurons than Control
Description: (§4) Between 55 and 60 day post MPTP injection, the mice are sacrificed using sodium nembutol. Mouse brains are perfused with phosphate buffered saline followed by Lana's fixative (paraformaldehyde and picric acid). The brains are removed and placed in Lana's fixative for 7 to 10 days. The brains are then sectioned coronally at 50 micrometers using a vibratome. And the sections stained with an antibody to tyrosine hydoxylase, the rate limiting enzyme in dopamine synthesis. The section was then examined under microscope at 100× magnification. Tissue slices (−2.9 mm and −3.6 mm posterior to Bregma were selected for cell counting in the SN and VTA. These sections are at the midpoint of the rostral half and the midpoint of the cauldual half of SN, respectively. Each TH-labeled cell that is clearly visible that has between 2 and 6 neurites is considered a neuron. An overall average count for each animal is calculated from the four sections (rostral and caudal, left and right). An average is obtained for the four sections. Separate analyses are performed on the neuron counts from SN and VTA. These counts are analyzed using a repeated measures ANOVA, following by tests of the between groups effect using Fisher's HSD method.
as §1
as §2, with “mg/kg/day)). […]” for “mg/kg/day)).”

[4] = test system: dopaminergic neurons in the substantia nigra (SN); test: Neuron counting (tyrosine hydroxylase-labeled cells) in substantia nigra of MPTP-treated mice; details: for Neuron loss in the substantia nigra versus MPTP-treated animals: 3 mg/kg/day s.c. mini-pump 14 days, 55-60 days post MPTP; for Average Neuron Count (statistical error): substantia nigra, 3 mg/kg/day s.c. mini-pump 14 days + MPTP 40 mg/kg s.c., Control 60, Vehicle + MPTP 25
Description: as §4, §1, §2
Four out of the 5 groups of mice receive an infusion of a test compound (or of vehicle containing no compound). These infusions are administered via subcutaneous implanted osmotic mini-pump over a 14 day period at a flow of 0.25 microliters/hour. Three days following implantation of the pumps, the mice are given the Open Field and Tail Hanging tests, along with the group of control mice, who are not implanted with mini-pumps. Immediately following the tests, the pump containing mice were given a 40 mg/kg injection of MPTP subcutaneously. All groups are then given the Open Field and Tail Hanging tests at 10-12 days and 30-40 days following MPTP treatment. The Open Field, and Tail Hanging tests are given at 50-55 days post MPTP treatment.

Structure (SMILES)	Impairment of forelimb extensions (tail hang test) (MPTP-treated mice [1])	Number of unsupported rears compared with vehicle (MPTP-treated mice [2]; 3 mg/kg/day s.c. mini-pump, 50-60 days post MPTP treatment)	Reduction of MPTP-induced neuron loss in the Ventral Tegmental area [3]	Neuron loss in the substantia nigra versus MPTP-treated animals [4]	Average Neuron Count (statistical error) [4]	Open field activity compared with the vehicle group (MPTP-treated mice [2]; 10 and 30 days post MPTP (40 mg/kg s.c.))	Open field activity compared with the vehicle group (MPTP-treated mice [2]; 10 days post MPTP)
OCCNC(=S)NCc1cccc(Cl)c1F [AGN 197075]	significantly reduces this impairment	significantly more unsupported rears	about 10%	significantly less neuron loss	37 (±2)	–	–
Brc1c(NC2=NCCN2)ccc2nccnc12 [brimonidine, reference compound]	no such trend	–	about 10%	significantly less neuron loss	32 (±1)	no alteration in this increase of activity	–
CCC1=CC(Cc2c[nH]cn2)CCC1 (stereo not drawn) [AGN 196923]	no such trend	–	about 10%	significantly less neuron loss	35 (±2)	–	significant reduces the amount of activity
